For the experiment, the target named is T1, ΔF508-CFTR (Homo sapiens, UniProt P13569, DEL508-508).
T1 construct: expressed in transfected cells
In words: Membrane potential optical (FRET/VIPR) assay, identification of potentiator compounds. In kind it is cell-based. As to conditions: Table 3, assay not given; for % Activity: relative efficacy. The essentials:
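Double-addition potentiator screen: compound delivered in gluconate-substituted Cl^--free medium, membrane potential followed via CC2-DMPE/DiSBAC2(3) FRET on VIPR. Cells were ΔF508-CFTR-expressing NIH3T3 mouse fibroblasts, held 2 h at 37° C. then 24 h at 27° C. before assay.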

T1 sequence (P13569 with tags, fused parts or gaps DEL508-508): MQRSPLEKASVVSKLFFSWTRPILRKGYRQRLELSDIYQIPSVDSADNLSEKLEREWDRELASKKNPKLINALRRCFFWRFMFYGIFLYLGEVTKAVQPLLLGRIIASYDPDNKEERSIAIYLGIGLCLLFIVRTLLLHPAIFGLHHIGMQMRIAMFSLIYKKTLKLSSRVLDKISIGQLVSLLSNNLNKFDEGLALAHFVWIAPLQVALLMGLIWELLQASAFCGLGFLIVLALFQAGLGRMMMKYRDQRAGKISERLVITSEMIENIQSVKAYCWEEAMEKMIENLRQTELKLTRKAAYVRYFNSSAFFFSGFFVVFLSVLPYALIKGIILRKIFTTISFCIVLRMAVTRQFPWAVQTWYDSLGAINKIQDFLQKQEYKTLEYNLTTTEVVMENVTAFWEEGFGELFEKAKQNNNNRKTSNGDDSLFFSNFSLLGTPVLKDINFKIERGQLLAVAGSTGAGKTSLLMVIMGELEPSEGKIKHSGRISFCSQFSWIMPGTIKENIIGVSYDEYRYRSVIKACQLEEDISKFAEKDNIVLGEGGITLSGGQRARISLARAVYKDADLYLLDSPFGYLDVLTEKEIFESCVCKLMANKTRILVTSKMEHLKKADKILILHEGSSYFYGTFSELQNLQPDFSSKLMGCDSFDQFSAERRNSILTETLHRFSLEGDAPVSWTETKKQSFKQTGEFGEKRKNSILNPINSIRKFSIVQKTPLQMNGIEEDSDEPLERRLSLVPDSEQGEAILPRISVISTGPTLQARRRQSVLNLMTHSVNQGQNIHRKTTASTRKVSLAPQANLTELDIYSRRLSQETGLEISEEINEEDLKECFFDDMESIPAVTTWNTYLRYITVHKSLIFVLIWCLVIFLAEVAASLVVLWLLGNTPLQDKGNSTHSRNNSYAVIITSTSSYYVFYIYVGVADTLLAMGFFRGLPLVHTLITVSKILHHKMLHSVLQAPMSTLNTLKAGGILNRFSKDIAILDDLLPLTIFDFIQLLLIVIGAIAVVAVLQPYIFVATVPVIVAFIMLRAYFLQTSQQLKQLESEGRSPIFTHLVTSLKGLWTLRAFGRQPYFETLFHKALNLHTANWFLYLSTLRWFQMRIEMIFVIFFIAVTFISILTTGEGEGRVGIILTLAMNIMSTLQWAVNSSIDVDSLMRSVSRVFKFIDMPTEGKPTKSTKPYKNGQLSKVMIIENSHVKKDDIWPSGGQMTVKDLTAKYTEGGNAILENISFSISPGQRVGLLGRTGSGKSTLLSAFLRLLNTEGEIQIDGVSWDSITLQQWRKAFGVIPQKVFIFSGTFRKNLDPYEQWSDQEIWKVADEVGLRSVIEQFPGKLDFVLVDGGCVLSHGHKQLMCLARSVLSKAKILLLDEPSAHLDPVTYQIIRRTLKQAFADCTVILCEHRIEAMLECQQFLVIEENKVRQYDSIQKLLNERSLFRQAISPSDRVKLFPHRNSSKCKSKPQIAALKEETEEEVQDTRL

A word on the EC50: it is the concentration that produces a half-maximal response. Turning to `CCOc1ccc2[nH]cc(C(=O)Nc3cc4[nH]ccc4cc3C(C)(C)C)c(=O)c2c1` [Compound 681, 6-ethoxy-4-oxo-N-(5-tert-butyl-1H-indol-6-yl)-1H-quinoline-3-carboxamide], the EC50 was less than 10 µM and the “% Activity” value was “++ (between 25% to 100%)”.
Taken in the same sequence, the figures for `CCc1cccc2c(=O)c(C(=O)Nc3ccc(C(C)C)cc3C(F)(F)F)c[nH]c12` [Compound 682, 8-ethyl-N-[4-isopropyl-2-(trifluoromethyl)phenyl]-4-oxo-1H-quinoline-3-carboxamide] were less than 10 µM and “+ (<25%)”.
Take `Cc1cc(C(C)(C)C)c(O)cc1NC(=O)c1c[nH]c2ccc(F)cc2c1=O` [Compound 683, 6-fluoro-N-(5-hydroxy-2-methyl-4-tert-butyl-phenyl)-4-oxo-1H-quinoline-3-carboxamide]: the half-maximal effective concentration (EC50) was less than 10 µM and the “% Activity” value is “++ (between 25% to 100%)”.
Taken in the same sequence, the figures for `C[C@@H]1CCCN1c1ccc(NC(=O)c2c[nH]c3ccc(F)cc3c2=O)c(C(F)(F)F)c1` [Compound 684, (R)-6-fluoro-N-(4-(2-methylpyrrolidin-1-yl)-2-(trifluoromethyl)phenyl)-4-oxo-1,4-dihydroquinoline-3-carboxamide] were less than 10 µM and “++ (between 25% to 100%)”.
Taken in the same sequence, the figures for `COc1ccc2[nH]cc(C(=O)Nc3ccc(N4[C@H](C)CC[C@H]4C)cc3C(F)(F)F)c(=O)c2c1` [Compound 685, N-(4-((2R,5R)-2,5-dimethylpyrrolidin-1-yl)-2-(trifluoromethyl)phenyl)-6-methoxy-4-oxo-1,4-dihydroquinoline-3-carboxamide] were less than 10 µM and “++ (between 25% to 100%)”.
As for `O=C(Nc1ccc(N2CCCCC2)cc1C(F)(F)F)c1c[nH]c2ccccc2c1=O` [Compound 686, 4-oxo-N-[4-(1-piperidyl)-2-(trifluoromethyl)phenyl]-1H-quinoline-3-carboxamide], the EC50 is less than 10 µM and the “% Activity” value is listed as “++ (between 25% to 100%)”.
On the same counts, the results for `CC(C)(C)c1cc(C(C)(C)C)c(NC(=O)c2c[nH]c3c(F)cccc3c2=O)cc1O` [Compound 687, 8-fluoro-N-(5-hydroxy-2,4-ditert-butyl-phenyl)-4-oxo-1H-quinoline-3-carboxamide] are less than 10 µM and “++ (between 25% to 100%)”.
On the same counts, the results for `Cc1ccc2[nH]cc(C(=O)Nc3cc(O)c(C(C)(C)C)cc3C(C)(C)C)c(=O)c2c1` [Compound 688, N-(5-hydroxy-2,4-ditert-butyl-phenyl)-6-methyl-4-oxo-1H-quinoline-3-carboxamide] are less than 10 µM and “++ (between 25% to 100%)”.
For `O=C(Nc1ccc(N2CCC2)cc1C(F)(F)F)c1c[nH]c2ccccc2c1=O` [Compound 689, N-[4-azetidin-1-yl-2-(trifluoromethyl)phenyl]-4-oxo-1H-quinoline-3-carboxamide], the half-maximal effective concentration (EC50) was less than 10 µM and the “% Activity” value is on record as “++ (between 25% to 100%)”.
On the same counts, the results for `COC(=O)c1c(NC(=O)c2c[nH]c3ccccc3c2=O)csc1C(C)(C)C` [Compound 690, methyl 4-[(4-oxo-1H-quinolin-3-yl)carbonylamino]-2-tert-butyl-thiophene-3-carboxylate] are less than 10 µM and “++ (between 25% to 100%)”.
Take `COc1cc(NC(=O)c2c[nH]c3ccccc3c2=O)cc(C(F)(F)F)c1` [Compound 691, N-[3-methoxy-5-(trifluoromethyl)phenyl]-4-oxo-1H-quinoline-3-carboxamide]: the EC50 was less than 10 µM and the “% Activity” value is on record as “++ (between 25% to 100%)”.
On the same counts, the results for `O=C(Nc1ccccc1-c1ccccn1)c1c[nH]c2ccccc2c1=O` [Compound 692, 4-oxo-N-[2-(2-pyridyl)phenyl]-1H-quinoline-3-carboxamide] are less than 10 µM and “++ (between 25% to 100%)”.

Values taken from patent publication US8614327B2 (Vertex Pharmaceuticals Incorporated, priority 2004, dated 2013).
